Measured values from patent US20220347167A1, “A NEW TREATMENT FOR MEIBOMIAN GLAND DYSFUNCTION” (The Schepens Eye Research Institute, Inc., priority 2019, published 2022).

Test system: HIF1α
Experiment: HIF1α expression in CoCl2-stimulated HepG2 cells (positive control for HIF1α antibody)
Type: cell-based, human
Conditions: 4 hours of CoCl2 treatment
Method: After culture in DMEM/F12+10% FBS under normoxic conditions for 7 days, cells were exposed to 21% O2, 1% O2 and 10 μM Roxa, alone or in combination, for an additional 6 hours. The cells were lysed in 2× Laemmli sample buffer (Bio-Rad Laboratories, Hercules, Calif.) and sonicated to extract nuclear protein [Andersen et al. (2002) Current biology: CB 12:1-11]. Human hepatocellular carcinoma cell lines (HepG2 cells) (America Type Culture Collection, Manassas, Va.), which express high concentration of HIF1α under CoCl2 stimulation for 4 hours [Yoo et al. (2014) Journal of cellular biochemistry 115:1147-1158], were used as a positive control for HIF1α antibody. The CoCl2 was purchased from Sigma-Aldrich Corp (St. Louis, Mo.). Cell lysates were then evaluated for HIF1α (1:1000, BD Biosciences, San Jose, Calif.) or β-actin (1:10,000, Cell Signaling Technology) expression. Secondary antibodies were horseradish peroxidase (HRP)-conjugated goat anti-rabbit or goat anti-mouse IgG (both 1:5000, Sigma-Aldrich). Densitometry was performed using ImageJ (at the World Wide Web website of rsb.info.nih.gov/ij).

Structure (SMILES): [Cl-].[Cl-].[Co+2] [CoCl2, cobalt (II) chloride]
- HIF1α protein in HepG2 cell lysates: substantial amounts of HIF1α protein
